Experimental data: ChEMBL document CHEMBL1201862, “PubChem BioAssay data set” (2004)
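Five compound concentrations were applied to cells in 96-well plates for 48 hours; endpoints were derived by simple linear interpolation of the resulting dose-response curve. Abbreviation: GI50, concentration required for 50% inhibition of growth.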 Activity calls are given as the source filed them. Cut-off read from the data, not from the text of the source: active = GI50 up to about 1.1 µM and inactive = higher. Where a SMILES comes first, the peptide text is derived from it. [ ]: non-standard residue; d: D form. Phe(4-Cl) = N[CH](Cc1ccc(Cl)cc1)C(=O)O

Experiments:
Assay in all cases: NCI anticancer screen, dose series, 48 h
[1] = tested on: K562
[2] = tested on: OVCAR-8
[3] = tested on: RPMI-8226
[4] = tested on: SK-MEL-28
[5] = tested on: HOP-62
[6] = tested on: NCI-H23
[7] = tested on: A498
[8] = tested on: ACHN
[9] = tested on: U-251
[10] = tested on: HCT-116
[11] = tested on: SK-OV-3
[12] = tested on: EKVX
[13] = tested on: LXFL 529
[14] = tested on: SW-620
[15] = tested on: NCI-H226
[16] = tested on: NCI-H522

SMILES: CC(O)C(NC(=O)C(Cc1ccccc1)NC(=O)C(NC(=O)C(CCCCN)NC(=O)C(Cc1c[nH]c2ccccc12)NC(=O)C(Cc1ccc(O)cc1)NC(=O)C(Cc1ccc(Cl)cc1)NC(=O)C(N)Cc1ccccc1)C(C)O)C(N)=O (stereo not drawn) (H-F[Phe(4-Cl)]YWKTFT-NH2; configuration not given here)
- GI50 [1]: 15.6 µM (inactive)
- GI50 [2]: 23.9 µM (inactive)
- GI50 [3]: 14 µM (inactive)
- GI50 [4]: 20.7 µM (inactive)
- GI50 [5]: 20.5 µM (inactive)
- GI50 [6]: 19.8 µM (inactive)
- GI50 [7]: 18.8 µM (inactive)
- GI50 [8]: 21.9 µM (inactive)
- GI50 [9]: 18.7 µM (inactive)
- GI50 [10]: 18.9 µM (inactive)
- GI50 [11]: 27.6 µM (inactive)
- GI50 [12]: 16.4 µM (inactive)
- GI50 [13]: 18.4 µM (inactive)

SMILES: CCCCC#COP(=O)(OCC)OCC
- GI50 [14]: > 100 µM (inactive)
- GI50 [2]: > 100 µM (inactive)
- GI50 [3]: > 100 µM (inactive)
- GI50 [15]: > 100 µM (inactive)
- GI50 [5]: > 100 µM (inactive)
- GI50 [6]: > 100 µM (inactive)
- GI50 [7]: > 100 µM (inactive)
- GI50 [8]: > 100 µM (inactive)
- GI50 [9]: > 100 µM (inactive)
- GI50 [10]: > 100 µM (inactive)
- GI50 [11]: > 100 µM (inactive)
- GI50 [12]: > 100 µM (inactive)
- GI50 [13]: > 100 µM (inactive)
- GI50 [16]: > 100 µM (inactive)

SMILES: CN(C)CC1CCC(=C2CCCC2)C1=O (stereo not drawn)
- GI50 [1]: 2.86 µM (inactive)
- GI50 [2]: 20 µM (inactive)
- GI50 [3]: 0.859 µM (active)
- GI50 [4]: 14.4 µM (inactive)
- GI50 [15]: 17.9 µM (inactive)
- GI50 [5]: 14.3 µM (inactive)
- GI50 [6]: 20 µM (inactive)
- GI50 [7]: 18.7 µM (inactive)
- GI50 [8]: 8.18 µM (inactive)
- GI50 [9]: > 10 µM (inactive)
- GI50 [10]: 13.6 µM (inactive)
- GI50 [11]: > 100 µM (inactive)
- GI50 [12]: 18.6 µM (inactive)
- GI50 [13]: 3.24 µM (inactive)
- GI50 [16]: 1.71 µM (inactive)

SMILES: COC(=O)CCC(NC(=S)N/N=C/c1ccco1)C(=O)OC (stereo not drawn)
- GI50 [1]: > 100 µM (inactive)
- GI50 [14]: > 100 µM (inactive)
- GI50 [2]: > 100 µM (inactive)
- GI50 [4]: > 100 µM (inactive)
- GI50 [15]: > 100 µM (inactive)
- GI50 [5]: > 100 µM (inactive)
- GI50 [6]: > 100 µM (inactive)
- GI50 [7]: > 100 µM (inactive)
- GI50 [8]: > 100 µM (inactive)
- GI50 [9]: > 100 µM (inactive)
- GI50 [10]: > 100 µM (inactive)
- GI50 [11]: > 100 µM (inactive)
- GI50 [12]: > 100 µM (inactive)
- GI50 [13]: > 100 µM (inactive)
- GI50 [16]: > 100 µM (inactive)

SMILES: COc1ccc2c(c1)NC1(O)c3ccccc3C(=O)C21O (stereo not drawn)
- GI50 [1]: > 100 µM (inactive)
- GI50 [14]: > 100 µM (inactive)
- GI50 [2]: > 100 µM (inactive)
- GI50 [3]: > 100 µM (inactive)
- GI50 [4]: > 100 µM (inactive)
- GI50 [15]: > 100 µM (inactive)
- GI50 [5]: > 100 µM (inactive)
- GI50 [6]: > 100 µM (inactive)
- GI50 [7]: > 100 µM (inactive)
- GI50 [8]: > 100 µM (inactive)
- GI50 [9]: > 100 µM (inactive)
- GI50 [10]: > 100 µM (inactive)
- GI50 [11]: > 100 µM (inactive)
- GI50 [13]: > 100 µM (inactive)
- GI50 [16]: > 100 µM (inactive)

SMILES: CS(=O)(=O)NNS(=O)(=O)c1ccc(Cl)cc1
- GI50 [1]: > 100 µM (inactive)
- GI50 [14]: > 100 µM (inactive)
- GI50 [2]: > 100 µM (inactive)
- GI50 [3]: > 100 µM (inactive)
- GI50 [15]: 11 µM (inactive)
- GI50 [5]: > 100 µM (inactive)
- GI50 [6]: > 100 µM (inactive)
- GI50 [7]: > 100 µM (inactive)
- GI50 [8]: > 100 µM (inactive)
- GI50 [9]: > 100 µM (inactive)
- GI50 [10]: > 100 µM (inactive)
- GI50 [12]: 76.4 µM (inactive)
- GI50 [13]: > 100 µM (inactive)
- GI50 [16]: 90.8 µM (inactive)

SMILES: Cc1ccc2c(c1)C(c1cccc3ccccc13)OC2=O (stereo not drawn)
- GI50 [1]: > 100 µM (inactive)
- GI50 [14]: > 100 µM (inactive)
- GI50 [2]: 84.5 µM (inactive)
- GI50 [4]: > 100 µM (inactive)
- GI50 [15]: 42.9 µM (inactive)
- GI50 [5]: 21.4 µM (inactive)
- GI50 [6]: 75.9 µM (inactive)
- GI50 [7]: 26 µM (inactive)
- GI50 [8]: 92.9 µM (inactive)
- GI50 [9]: 58.2 µM (inactive)
- GI50 [10]: > 100 µM (inactive)
- GI50 [11]: 86.3 µM (inactive)
- GI50 [12]: 69.8 µM (inactive)
- GI50 [13]: > 100 µM (inactive)
- GI50 [16]: > 100 µM (inactive)

SMILES: COC1=CC2(C=CC1=O)c1cc(OC)c(OC)cc1CCN2C(=O)c1ccccc1 (stereo not drawn)
- GI50 [1]: > 100 µM (inactive)
- GI50 [14]: > 100 µM (inactive)
- GI50 [2]: > 100 µM (inactive)
- GI50 [3]: > 100 µM (inactive)
- GI50 [4]: > 100 µM (inactive)
- GI50 [15]: > 100 µM (inactive)
- GI50 [6]: > 100 µM (inactive)
- GI50 [7]: > 100 µM (inactive)
- GI50 [8]: > 100 µM (inactive)
- GI50 [9]: > 100 µM (inactive)
- GI50 [10]: > 100 µM (inactive)
- GI50 [11]: > 100 µM (inactive)
- GI50 [12]: > 100 µM (inactive)
- GI50 [13]: > 100 µM (inactive)
- GI50 [16]: > 100 µM (inactive)

SMILES: CCCCCCCC1(c2ccc(N)cc2)CCC(=O)NC1=O (stereo not drawn)
- GI50 [1]: 28.4 µM (inactive)
- GI50 [14]: 58.2 µM (inactive)
- GI50 [2]: 35.8 µM (inactive)
- GI50 [3]: 19.1 µM (inactive)
- GI50 [4]: 28.7 µM (inactive)
- GI50 [5]: 32.9 µM (inactive)
- GI50 [6]: 38.3 µM (inactive)
- GI50 [8]: 18.7 µM (inactive)
- GI50 [11]: 33 µM (inactive)
- GI50 [12]: 23.5 µM (inactive)
- GI50 [13]: 29.3 µM (inactive)
- GI50 [16]: 27.2 µM (inactive)
